Assay results reported in patent publication US11072628B2, “Nucleoside analogues for the treatment of parasitic infections” (UNIVERSITEIT GENT, priority 2017, dated 2021).
Like-named read-outs stand apart in the source and are kept apart here.

Columns and labels:
[1] = Cytotoxicity against MRC-5 fibroblasts; settings: human, MRC-5 fibroblasts, MRC-5 EC50, Table 2; cytotoxicity
Experimental: (§1) Cytotoxicity was assayed against MRC-5 fibroblasts. Results are depicted in Tables 4 and 5.

[2] = tested on: T. cruzi Tulahuen CL2 β galactosidase strain; test: T. cruzi Tulahuen CL2 β galactosidase strain on MRC-5SV2 cells (CPRG); format: cell-based, Trypanosoma cruzi
Experimental: All cultures and assays were conducted at 37° C./5% CO2. […] The results were expressed as % reduction in parasite burdens compared to control wells from which an EC50 was calculated.

[3] = tested on: T. brucei Squib 427; test: In vitro drug susceptibility, T. brucei Squib 427 (resazurin); format: cell-based, Trypanosoma brucei brucei
Experimental: (§2) All trypanosome strains were cultured in the standard HMI-9 medium supplemented with 10% fetal bovine serum (FBS) at 37° C. in a 5% CO2 atmosphere.

[4] = tested on: MRC-5 fibroblasts; test: in vitro
Experimental: as §1

[5] = tested on: T. b. rhodesiense STIB-900; test: In vitro drug susceptibility, T. b. rhodesiense STIB-900 (resazurin); format: cell-based, Trypanosoma brucei rhodesiense
Experimental: as §2

[6] = Trypanosoma cruzi, TULAHUEN, MRC-5 SV2, Table 2, average of 2-3 independent replicates
[7] = Table 1, average of 2-4 independent determinations, read-out: T. brucei brucei EC50
[8] = Table 1, average of 2-4 independent determinations, read-out: T. brucei rhod. EC50
[9] = Table 2, average of 2-3 independent replicates
[10] = Table 4, average of 2-6 independent determinations, read-out: T.b. brucei EC50
[11] = Table 4, average of 2-6 independent determinations, read-out: T.b. rhod. EC50
[12] = Table 5, average of 2-4 independent replicates

Compound	EC50 [1]	melting point	EC50 [2, 6]	EC50 [3, 7]	EC50 [4]	EC50 [5, 8]	EC50 [2]	EC50 [2, 9]	EC50 [3, 10]	EC50 [5, 11]	EC50 [2, 12]
Nc1ncnc2c1c(-c1ccc(F)c(Cl)c1)cn2[C@@H]1O[C@H](CO)C[C@H]1O [FH10681, 4-amino-5-(3-chloro-4-fluorophenyl)-N7-(3′-deoxy-β-D-ribofuranosyl)-pyrrolo[2,3-d]pyrimidine]	45.5 µM	178 °C	0.3 µM	–	–	–	–	–	–	–	–
OC[C@@H]1C[C@@H](O)[C@H](n2ccc3c(Cl)ccnc32)O1 [FH9541, 4-chloro-N1-(3′-deoxy-β-D-ribofuranosyl)-pyrrolo[2,3-b]pyridine]	–	–	–	31.2 µM	> 64 µM	7.97 µM	> 64 µM	–	–	–	–
Nc1ccnc2c1ccn2[C@@H]1O[C@H](CO)C[C@H]1O [FH9550, 4-amino-N1-(3′-deoxy-β-D-ribofuranosyl)-pyrrolo[2,3-b]pyridine]	–	–	–	> 64 µM	> 64 µM	30.8 µM	> 64 µM	–	–	–	–
Nc1ncnc2c1c(-c1ccccn1)cn2[C@@H]1O[C@H](CO)C[C@H]1O [FH8502, 4-amino-5-(pyrid-2-yl)-N7-(3′-deoxy-β-D-ribfuranosyl)-pyrrolo[2,3-d]pyrimidine]	–	–	–	7.6 µM	33.7 µM	37.3 µM	–	40.8 µM	–	–	–
CNc1ncnc2c1c(Br)cn2[C@@H]1O[C@H](CO)C[C@H]1O [FH8516, 4-methylamino-5-bromo-N7-(3′-deoxy-β-D-ribofuranosyl)-pyrrolo[2,3-d]pyrimidine]	–	–	–	6.21 µM	> 64 µM	8.25 µM	–	> 64 µM	–	–	–
Nc1ncnc2c1c(SC(F)(F)F)cn2[C@@H]1O[C@H](CO)C[C@H]1O [FH9605, 4-amino-5-trifluoromethylthio-N7-(3′-deoxy-β-D-ribofuranosyl)-pyrrolo[2,3-d]pyrimidine]	–	–	–	27.2 µM	18.6 µM	21 µM	–	26 µM	–	–	–
CC(C)c1ccc(-c2cn([C@@H]3O[C@H](CO)C[C@H]3O)c3ncnc(N)c23)cc1 [FH9574, 4-amino-5-(4-isopropylphenyl)-N7-(3′-deoxy-β-D-ribofuranosyl)-pyrrolo[2,3-d]pyrimidine]	–	–	–	> 64 µM	24.9 µM	55.9 µM	–	8.5 µM	–	–	–
Nc1ncnc2c1c(-c1ccccc1)cn2[C@@H]1O[C@H](CO)C[C@H]1O [FH8480, 4-amino-5-phenyl-N7-(3′-deoxy-β-D-ribofuranosyl)-pyrrolo[2,3-d]pyrimidine]	–	–	–	7.9 µM	61.8 µM	1.2 µM	–	2.57 µM	–	–	–
Nc1ncnc2c1c(-c1ccc(F)cc1)cn2[C@@H]1O[C@H](CO)C[C@H]1O [FH10680, 4-amino-5-(4-fluorophenyl)-N7-(3′-deoxy-β-D-ribofuranosyl)-pyrrolo[2,3-d]pyrimidine]	> 64 µM	186 to 187 °C	0.64 µM	–	–	–	–	–	–	–	–
COc1ccc(-c2cn([C@@H]3O[C@H](CO)C[C@H]3O)c3ncnc(N)c23)cc1Cl [FH10645]	–	–	–	7.13 µM	> 64 µM	2.51 µM	–	3.3 µM	–	–	–
CSc1ncnc2c1c(Br)cn2[C@@H]1O[C@H](CO)C[C@H]1O [FH8510, 4-thiomethyl-5-bromo-N7-(3′-deoxy-β-D-ribofuranosyl)-pyrrolo[2,3-d]pyrimidine]	–	–	–	1.68 µM	0.29 µM	4.34 µM	–	35.8 µM	–	–	–
O=c1[nH]cnc2c1c(Br)cn2[C@@H]1O[C@H](CO)C[C@H]1O [FH8500, 4-oxo-5-bromo-N7-(3′-deoxy-β-D-ribfuranosyl)-pyrrolo[2,3-d]pyrimidine]	–	–	–	8.09 µM	> 64 µM	2.26 µM	–	> 64 µM	–	–	–
Nc1ncnc2c1ccn2[C@@H]1O[C@H](COS(N)(=O)=O)C[C@H]1O [FH9608, 4-amino-N7-(3′-deoxy-5′-O-sulfamoyl-β-D-ribofuranosyl)-pyrrolo[2,3-d]pyrimidine]	–	–	–	4.6 µM	5.09 µM	0.87 µM	–	9.91 µM	–	–	–
Nc1ncnc2c1c(-c1ccc3ccccc3c1)cn2[C@@H]1O[C@H](CO)C[C@H]1O [FH9575, 4-amino-5-(2-naftyl)-N7-(3′-deoxy-β-D-ribfuranosyl)-pyrrolo[2,3-d]pyrimidine]	–	–	–	18.6 µM	5 µM	2 µM	–	0.72 µM	–	–	–
COC[C@@H]1C[C@@H](O)[C@H](n2cc(Br)c3c(N)ncnc32)O1 [FH10626, 4-amino-5-bromo-N7-(3′-deoxy-5′-O-methyl-β-D-ribofuranosyl)-pyrrolo[2,3-d]pyrimidine]	–	–	–	32 µM	22.7 µM	18.7 µM	–	50.4 µM	–	–	–
Nc1ncnc2c1cc(Br)n2[C@@H]1O[C@H](CO)C[C@H]1O [FH10622, 4-amino-6-bromo-N7-(3′-deoxy-β-D-ribfuranosyl)-pyrrolo[2,3-d]pyrimidine]	–	–	–	4.97 µM	> 64 µM	1.02 µM	–	> 64 µM	–	–	–

Compound	EC50 [1]	melting point	EC50 [2, 6]	EC50 [3, 7]	EC50 [4]	EC50 [5, 8]	EC50 [2]	EC50 [2, 9]	EC50 [3, 10]	EC50 [5, 11]	EC50 [2, 12]
Nc1ncnc2c1c(Br)cn2[C@H]1CC[C@@H](CO)O1 [FH10638, 4-amino-5-bromo-N7-(2′,3′-dideoxy-β-D-ribofuranosyl)-pyrrolo[2,3-d]pyrimidine]	–	–	–	57.9 µM	16.4 µM	24.4 µM	–	43.3 µM	–	–	–
Cc1cccc(-c2cn([C@@H]3O[C@H](CO)C[C@H]3O)c3ncnc(N)c23)c1 [FH10639, 4-amino-5-(3-methylphenyl)-N7-(3′-deoxy-β-D-ribofuranosyl)-pyrrolo[2,3-d]pyrimidine]	–	–	–	30.5 µM	> 64 µM	11.2 µM	–	5.15 µM	–	–	–
Nc1ccnc2c1c(Br)cn2[C@@H]1O[C@H](CO)C[C@H]1O [FH9549, 3-bromo-4-amino-N1-(3′-deoxy-β-D-ribofuranosyl)-pyrrolo[2,3-b]pyridine]	–	–	–	35.2 µM	> 64 µM	> 64 µM	> 64 µM	–	–	–	–
C[C@@H]1C[C@@H](O)[C@H](n2cc(Br)c3c(N)ncnc32)O1 [FH8492, 4-amino-5-bromo-N7-(3′-5′-dideoxy-β-D-ribofuranosyl)-pyrrolo[2,3-d]pyrimidine]	–	–	–	33.5 µM	10.2 µM	20.1 µM	–	12 µM	–	–	–
Nc1ncnc2c1c(Br)cn2[C@@H]1OC(CO)(CO)C[C@H]1O [FH9561, 4-amino-5-bromo-N7-(3′-deoxy-4′-hydroxymethyl-β-D-ribofuranosyl)-pyrrolo[2,3-d]pyrimidine]	–	–	–	26.8 µM	> 64 µM	5.6 µM	–	> 64 µM	–	–	–
Nc1ncnc2c1c(-c1cccc(C(F)(F)F)c1)cn2[C@@H]1O[C@H](CO)C[C@H]1O [FH10640, 4-amino-5-(3-trifluoromethylphenyl)-N7-(3′-deoxy-β-D-ribofuranosyl)-pyrrolo[2,3-d]pyrimidine]	–	–	–	8.6 µM	49.6 µM	1.77 µM	–	11.2 µM	–	–	–
Nc1ncnc2c1c(Cl)cn2[C@@H]1O[C@H](CO)[C@@H](O)[C@H]1O [FH3169]	–	–	–	–	33.4 µM	–	–	–	1.33 µM	0.12 µM	0.52 µM
Nc1ncnc2c1c(-c1ccc(F)c(F)c1)cn2[C@@H]1O[C@H](CO)C[C@H]1O [FH10682, 4-amino-5-(3,4-difluorophenyl)-N7-(3′-deoxy-β-D-ribofuranosyl)-pyrrolo[2,3-d]pyrimidine]	> 64 µM	218 °C	0.33 µM	–	–	–	–	–	–	–	–
CO[C@@H]1C[C@@H](CO)O[C@H]1n1cc(Br)c2c(N)ncnc21 [FH9616, 4-amino-5-bromo-N7-(2′-O-methyl-3′-deoxy-β-D-ribofuranosyl)-pyrrolo[2,3-d]pyrimidine]	–	–	–	32.5 µM	> 64 µM	25.4 µM	–	> 64 µM	–	–	–
Cc1ccc(-c2cn([C@@H]3O[C@H](CO)C[C@H]3O)c3ncnc(N)c23)cc1C [FH10653, 4-amino-5-(3,4-dimethylphenyl)-N7-(3′-deoxy-β-D-ribofuranosyl)-pyrrolo[2,3-d]pyrimidine]	–	–	–	8.81 µM	22.3 µM	2.17 µM	–	1.37 µM	–	–	–
Nc1ncnc2c1c(-c1ccc3ccccc3n1)cn2[C@@H]1O[C@H](CO)[C@@H](O)[C@H]1O [MS1017]	–	–	–	–	> 64 µM	–	–	–	6.45 µM	3.72 µM	34.1 µM
Nc1ncnc2c1c(-c1ccc(Cl)c(F)c1)cn2[C@@H]1O[C@H](CO)C[C@H]1O [FH10683, 4-amino-5-(3-fluoro-4-chlorophenyl)-N7-(3′-deoxy-β-D-ribofuranosyl)-pyrrolo[2,3-d]pyrimidine]	18.6 µM	206 °C	0.07 µM	–	–	–	–	–	–	–	–
CCSC[C@@H]1C[C@@H](O)[C@H](n2cc(Br)c3c(N)ncnc32)O1 [FH9590, 4-amino-5-bromo-N7-(3′-deoxy-5′-thio-ethyl-β-D-ribofuranosyl)-pyrrolo[2,3-d]pyrimidine]	–	–	–	32.9 µM	25.8 µM	10.6 µM	–	35.7 µM	–	–	–
4-amino-5-bromo-N7-(2′,3′-anhydro-2′,3′-dideoxy-β-D-ribofuranosyl)-pyrrolo[2,3-d]pyrimidine [FH10632]	–	–	–	> 64 µM	45.6 µM	59.9 µM	–	> 64 µM	–	–	–
OC[C@@H]1C[C@@H](O)[C@H](n2cc(Br)c3c(Cl)ccnc32)O1 [FH9540, 3-bromo-4-chloro-N1-(3′-deoxy-β-D-ribofuranosyl)-pyrrolo[2,3-b]pyridine]	–	–	–	14.8 µM	27.2 µM	28.9 µM	15 µM	–	–	–	–
